From patent publication US9833497B2, “Human originated EGF domain proteins and use of the same” (CHENGDU SOURCEBIO LIMITED-LIABILITY COMPANY, priority 2013, dated 2017)

Experiments:
Format in all cases: cell-based
[1] = system: Klebsiella pneumonia; test: MIC against Gram-negative bacteria: Klebsiella pneumonia; details: for MIC K. pneumonia: two-fold serial dilution
How it was run: (§1)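 MIC = lowest concentration of recombinant protein showing no growth. Test proteins: purified human-derived EGF domain proteins, two-fold dilution series, three wells per concentration; inoculum 5×10^5 CFU/mL in LB; incubation 37° C with shaking at 175 rpm.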

[2] = system: Aeromonas hydrophila; test: MIC against Gram-negative bacteria: Aeromonas hydrophila; details: for MIC A. hydrophila: two-fold serial dilution
How it was run: as §1

[3] = system: Citrobacter diversus; test: MIC against Gram-negative bacteria: Citrobacter diversus; details: for MIC C. diversus: two-fold serial dilution
How it was run: as §1

[4] = system: Pseudomonas aeruginosa; test: MIC against Gram-negative bacteria: Pseudomonas aeruginosa; details: for MIC P. aeruginosa: two-fold serial dilution
How it was run: as §1

[5] = system: Serratia marcescens; test: MIC against Gram-negative bacteria: Serratia marcescens; details: for MIC S. marcescens: two-fold serial dilution
How it was run: as §1

[6] = system: Proteus vulgaris; test: MIC against Gram-negative bacteria: Proteus vulgaris; details: for MIC P. vulgaris: two-fold serial dilution
How it was run: as §1

[7] = system: Proteus mirabilis; test: MIC against Gram-negative bacteria: Proteus mirabilis; details: for MIC P. mirabilis: two-fold serial dilution
How it was run: as §1

[8] = system: E. coli DH5α; test: Antibacterial activity: MIC and growth curve against E. coli DH5α in 96-well plate; details: minimal inhibitory concentration against E. coli DH5α; 96-well plate, 5×10^5 CFU/mL, 37° C., judged after 8 h
How it was run: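 Log-phase DH5α (OD600 about 0.5, 37° C, 185 rpm in LB) was pelleted, resuspended in fresh LB and seeded at 5×10^5 CFU/mL with recombinant protein at 50, 25 and 12.5 μg/mL (two-fold series), in triplicate. Plates were shaken at 175 rpm, 37° C, and OD600 was read every 30 min. MIC was the lowest concentration with no growth.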

[9] = system: Enterobacter cloacae; test: MIC against Gram-negative bacteria: Enterobacter cloacae; details: for MIC E. cloacae: two-fold serial dilution
How it was run: as §1

[10] = system: Moraxella catarrhalis; test: MIC against Gram-negative bacteria: Moraxella catarrhalis; details: for MIC M. catarrhalis: two-fold serial dilution
How it was run: as §1

[11] = system: E. coli BL21; test: MIC against Gram-negative bacteria: E. coli BL21; details: for MIC E. coli BL21: two-fold serial dilution
How it was run: as §1

[12] = 10 h cultivation at 37° C., 5×10^5 CFU/mL
[13] = K. pneumonia, 10 h cultivation at 37° C., 5×10^5 CFU/mL
[14] = A. hydrophila, 10 h cultivation at 37° C., 5×10^5 CFU/mL
[15] = C. diversus, 10 h cultivation at 37° C., 5×10^5 CFU/mL
[16] = P. aeruginosa, 10 h cultivation at 37° C., 5×10^5 CFU/mL
[17] = S. marcescens, 10 h cultivation at 37° C., 5×10^5 CFU/mL
[18] = P. vulgaris, 10 h cultivation at 37° C., 5×10^5 CFU/mL
[19] = P. mirabilis, 10 h cultivation at 37° C., 5×10^5 CFU/mL
[20] = E. cloacae, 10 h cultivation at 37° C., 5×10^5 CFU/mL
[21] = M. catarrhalis, 10 h cultivation at 37° C., 5×10^5 CFU/mL
[22] = E. coli BL21, 10 h cultivation at 37° C., 5×10^5 CFU/mL

Substance | MIC [8] [µg/mL] | MIC (μg/mL) K. pneumonia [1, 13] [µg/mL] | MIC (μg/mL) A. hydrophila [2, 14] [µg/mL] | MIC (μg/mL) C. diversus [3, 15] [µg/mL] | MIC (μg/mL) P. aeruginosa [4, 16] [µg/mL] | MIC (μg/mL) S. marcescens [5, 17] [µg/mL] | MIC (μg/mL) P. vulgaris [6, 18] [µg/mL] | MIC (μg/mL) P. mirabilis [7, 19] [µg/mL] | MIC (μg/mL) E. cloacae [9, 20] [µg/mL] | MIC (μg/mL) M. catarrhalis [10, 21] [µg/mL] | MIC (μg/mL) E. coli BL21 [11, 22] [µg/mL] | further results
PRT1177 (DANECEAKPCVNAKSCKNLIASYYCDCLPGWMGQNCD; listed as Homo sapiens) | 50 | – | – | – | – | – | – | – | – | – | – | MIC K. pneumonia [1, 12]: 12.5 µg/mL; MIC A. hydrophila [2, 12]: 12.5 µg/mL; MIC C. diversus [3, 12]: 50 µg/mL; MIC P. aeruginosa [4, 12]: 50 µg/mL; MIC S. marcescens [5, 12]: 25 µg/mL; MIC P. vulgaris [6, 12]: 12.5 µg/mL; MIC P. mirabilis [7, 12]: 50 µg/mL; MIC E. cloacae [9, 12]: 50 µg/mL; MIC M. catarrhalis [10, 12]: 12.5 µg/mL; MIC E. coli BL21 [11, 12]: 12.5 µg/mL
PRT935 (NIDECASNPCLNQGTCFDDISGYTCHCVLPYTGKNCQ; listed as Homo sapiens) | 12.5 | – | – | – | – | – | – | – | – | – | – | MIC ([1]; K. pneumonia, 10 h cultivation at 37° C.): 12.5 µg/mL; MIC ([2]; A. hydrophila, 10 h cultivation at 37° C.): 25 µg/mL; MIC ([3]; C. diversus, 10 h cultivation at 37° C.): 100 µg/mL; MIC ([4]; P. aeruginosa, 10 h cultivation at 37° C.): 25 µg/mL; MIC ([5]; S. marcescens, 10 h cultivation at 37° C.): 12.5 µg/mL; MIC ([6]; P. vulgaris, 10 h cultivation at 37° C.): 12.5 µg/mL; MIC ([7]; P. mirabilis, 10 h cultivation at 37° C.): 12.5 µg/mL; MIC ([9]; E. cloacae, 10 h cultivation at 37° C.): 25 µg/mL; MIC ([10]; M. catarrhalis, 10 h cultivation at 37° C.): 12.5 µg/mL; MIC ([11]; E. coli BL21, 10 h cultivation at 37° C.): 25 µg/mL
PRT1106 (NTDECASQPCLHGGLCVDGENRYSCNCTGSGFTGTHCE; listed as Homo sapiens) | 25 | – | – | – | – | – | – | – | – | – | – | MIC K. pneumonia [1, 12]: 25 µg/mL; MIC A. hydrophila [2, 12]: 12.5 µg/mL; MIC C. diversus [3, 12]: 25 µg/mL; MIC P. aeruginosa [4, 12]: 12.5 µg/mL; MIC S. marcescens [5, 12]: 50 µg/mL; MIC P. vulgaris [6, 12]: 12.5 µg/mL; MIC P. mirabilis [7, 12]: 25 µg/mL; MIC E. cloacae [9, 12]: 50 µg/mL; MIC M. catarrhalis [10, 12]: 50 µg/mL; MIC E. coli BL21 [11, 12]: 25 µg/mL
PRT248 (DVDECSARRGGCPQRCVNTAGSYWCQCWEGHSLSADGTLCV; listed as Homo sapiens) | 12.5 | 25 | 25 | 12.5 | 12.5 | 12.5 | 25 | 12.5 | 12.5 | 25 | 25 | –
PRT797 (WGPNCSVSCSCENGGSCSPEDGSCECAPGFRGPLCQ; listed as Homo sapiens) | 50 | 25 | 12.5 | 50 | 50 | 12.5 | 12.5 | 12.5 | 50 | 12.5 | 12.5 | –
PRT1173 (KCIPHPGCVHGICNEPWQCLCETNWGGQLCD; listed as Homo sapiens) | 12.5 | – | – | – | – | – | – | – | – | – | – | MIC K. pneumonia [1, 12]: 25 µg/mL; MIC A. hydrophila [2, 12]: 12.5 µg/mL; MIC C. diversus [3, 12]: 50 µg/mL; MIC P. aeruginosa [4, 12]: 12.5 µg/mL; MIC S. marcescens [5, 12]: 50 µg/mL; MIC P. vulgaris [6, 12]: 12.5 µg/mL; MIC P. mirabilis [7, 12]: 50 µg/mL; MIC E. cloacae [9, 12]: 12.5 µg/mL; MIC M. catarrhalis [10, 12]: 12.5 µg/mL; MIC E. coli BL21 [11, 12]: 25 µg/mL
PRT777 (SGDRCQLQTRCQNGGQWDGLKCQCPSTFYGSSCE; listed as Homo sapiens) | 50 | 12.5 | 50 | 50 | 50 | 12.5 | 25 | 50 | 12.5 | 12.5 | 12.5 | –
PRT1384 (STRTCPRDCRGRGRCEDGECICDTGYSGDDC; listed as Homo sapiens) | 25 | – | – | – | – | – | – | – | – | – | – | MIC against K. pneumonia ([1]; Klebsiella pneumonia, 5×10^5 CFU/mL, 10 h cultivation at 37° C.): 50 µg/mL; MIC against A. hydrophila ([2]; Aeromonas hydrophila, 5×10^5 CFU/mL, 10 h cultivation at 37° C.): 25 µg/mL; MIC against C. diversus ([3]; Citrobacter diversus, 5×10^5 CFU/mL, 10 h cultivation at 37° C.): 25 µg/mL; MIC against P. aeruginosa ([4]; Pseudomonas aeruginosa, 5×10^5 CFU/mL, 10 h cultivation at 37° C.): 25 µg/mL; MIC against S. marcescens ([5]; Serratia marcescens, 5×10^5 CFU/mL, 10 h cultivation at 37° C.): 25 µg/mL; MIC against P. vulgaris ([6]; Proteus vulgaris, 5×10^5 CFU/mL, 10 h cultivation at 37° C.): 50 µg/mL; MIC against P. mirabilis ([7]; Proteus mirabilis, 5×10^5 CFU/mL, 10 h cultivation at 37° C.): 25 µg/mL; MIC against E. cloacae ([9]; Enterobacter cloacae, 5×10^5 CFU/mL, 10 h cultivation at 37° C.): 25 µg/mL; MIC against M. catarrhalis ([10]; Moraxella catarrhalis, 5×10^5 CFU/mL, 10 h cultivation at 37° C.): 12.5 µg/mL; MIC against E. coli BL21 ([11]; E. coli BL21, 5×10^5 CFU/mL, 10 h cultivation at 37° C.): 12.5 µg/mL
PRT769 (CNGVDHGCEFQCVSEGLSYRCLCPEGRQLQADGKSC; listed as Homo sapiens) | 12.5 | 25 | 25 | 12.5 | 12.5 | 12.5 | 25 | 12.5 | 12.5 | 12.5 | 12.5 | –
PRT4 (LDVTCNIKNGRCEQFCKNSADNKVVCSCTEGYRLAENQKSCE; listed as Homo sapiens) | 25 | – | – | – | – | – | – | – | – | – | – | MIC (μg/mL) K. pneumonia ([1]; Klebsiella pneumonia, 96-well plate, 5×10^5 CFU/mL, 37° C., 10 h): 25 µg/mL; MIC (μg/mL) A. hydrophila ([2]; Aeromonas hydrophila, 96-well plate, 5×10^5 CFU/mL, 37° C., 10 h): 25 µg/mL; MIC (μg/mL) C. diversus ([3]; Citrobacter diversus, 96-well plate, 5×10^5 CFU/mL, 37° C., 10 h): 12.5 µg/mL; MIC (μg/mL) P. aeruginosa ([4]; Pseudomonas aeruginosa, 96-well plate, 5×10^5 CFU/mL, 37° C., 10 h): 25 µg/mL; MIC (μg/mL) S. marcescens ([5]; Serratia marcescens, 96-well plate, 5×10^5 CFU/mL, 37° C., 10 h): 25 µg/mL; MIC (μg/mL) P. vulgaris ([6]; Proteus vulgaris, 96-well plate, 5×10^5 CFU/mL, 37° C., 10 h): 50 µg/mL; MIC (μg/mL) P. mirabilis ([7]; Proteus mirabilis, 96-well plate, 5×10^5 CFU/mL, 37° C., 10 h): 25 µg/mL; MIC (μg/mL) E. cloacae ([9]; Enterobacter cloacae, 96-well plate, 5×10^5 CFU/mL, 37° C., 10 h): 12.5 µg/mL; MIC (μg/mL) M. catarrhalis ([10]; Moraxella catarrhalis, 96-well plate, 5×10^5 CFU/mL, 37° C., 10 h): 25 µg/mL; MIC (μg/mL) E. coli BL21 ([11]; E. coli BL21, 96-well plate, 5×10^5 CFU/mL, 37° C., 10 h): 50 µg/mL
PRT318 (DVDECEKNPCAGGECINNQGSYTCQCRAGYQSTLTRTECR; listed as Homo sapiens) | 12.5 | – | – | – | – | – | – | – | – | – | – | MIC [1, 13]: 50 µg/mL; MIC [2, 14]: 50 µg/mL; MIC [3, 15]: 12.5 µg/mL; MIC [4, 16]: 12.5 µg/mL; MIC [5, 17]: 50 µg/mL; MIC [6, 18]: 25 µg/mL; MIC [7, 19]: 12.5 µg/mL; MIC [9, 20]: 12.5 µg/mL; MIC [10, 21]: 50 µg/mL; MIC [11, 22]: 12.5 µg/mL
PRT829 (FGPSCTLHCDCGGGADCDPVSGQCHCVDGYMGPTCR; listed as Homo sapiens) | 50 | 25 | 25 | 12.5 | 12.5 | 12.5 | 12.5 | 50 | 50 | 25 | 25 | –
PRT850 (CQCHGHVDPVKTPKICKPESGECINCLHNTTGFWCENCLEGYVHDLEGNCIK; listed as Homo sapiens) | 50 | 50 | 50 | 12.5 | 12.5 | 50 | 25 | 12.5 | 12.5 | 50 | 25 | –
